Laboratory results as given in US7598033B2, “Method and devices for running reactions on a target plate for MALDI mass spectrometry” (University of Pennsylvania, priority 2003, dated 2009).

Tests used:
thrombin = thrombin (Homo sapiens, UniProt P00734); assay: Nanoliter thrombin/fibrinogen reaction on MALDI target, MS detection of fibrinopeptides A and B; type: biochemical; details: benzamidine in the nanoliter reaction, FIG. 26B
Procedure: The glycerol in the reaction was then removed, and MALDI matrix was deposited to result in a thin film suitable (FIG. 26A) for MS detection of FPA/FPB.
A 8×12 array of reactions were printed using an OmniGrid microarrayer containing varying concentrations of fibrinogen and a fibrinopeptide MS satandard. Certain reactions contained 1 mM benzamidine. The array was activated with thrombin and incubated under humidity (top row, A), the glycerol was removed (middle row, A), and then coated with MALDI matrix (bottom row, A). […] Conditions of the MALDI MS were: Voyager-DE PRO (sinapinic acid matrix), Glu1-Fibrinopeptide B (1 ug/ml) control, Reflector Mode, Positive Polarity, 1000-2000 Da Acquisition Range, 20000 V Accelerating voltage, 2033 laser intensity (20.0 Hz; 100/spectrum), Extraction delay time: 150 nsec, Grid voltage: 75%, Guide wire voltage: 0.002%.

[1] = Fluorogenic substrate microarray, aerosol deposition of enzyme: boc-VPR-MCA; type: biochemical; details: after spray application
Procedure: Well characterized for over 30 years, serine proteases of the coagulation pathway in plasma were selected as a system in which to monitor the delivery of complex enzyme fluids to the microassay. Fluorogenic substrates in DMSO/glycerol were assayed to a glass slide.
After spray application, thrombin caused a 65-fold increase in fluorescence activity after conversion of the boc-VPR-MCA substrate. […] Aerosol deposition of pure tPA (10 μM) to a sensing array caused significant cleavage of the tPA, thrombin and Xa substrates, resulting in fluorescence that was 18- to 20-fold above background.

Molecule | inhibition of thrombin release of fibrinopeptides A and B from fibrinogen (thrombin) | increase in fluorescence activity after conversion of the boc-VPR-MCA substrate [1] [fold]
N=C(N)c1ccccc1 [Benzamidine] | completely inhibited | 
thrombin |  | 65
